Experimental data taken from US11897910B2, “Mito-honokiol compounds and methods of synthesis and use thereof” (The Medical College of Wisconsin, Inc., priority 2015, dated 2024).

How the values were obtained:
UACC-62-WT cells [1] = assay: Melanoma cell proliferation monitored in real time; assay type: cell-based, human
Description: (§1) UACC-62-WT cells (A) or UACC-62-R cells (B) were treated with PLX4720 as indicated. Cell proliferation was monitored in real time with the continuous presence of indicated treatments until the end of each experiment. (C) Representative images shown are the segmentation of phase contrast images (segmentation mask illustrated in black). (D) The cell confluence (as control groups reach 95% confluency) is plotted against concentration of PLX4720 inhibitor. Dashed lines represent the fitting curves used to determine the IC50 values. […] (F) The effect of Mito-MGN (0.2 μM) on mitochondrial complex I and II activities (oxygen consumption rate, OCR) is shown for wild-type (red) and resistant UACC-62 (blue) melanoma cells.
(§2) UACC-62-WT cells (A) or UACC-62-R cells (B) were treated with Mito-MGN as indicated. Cell proliferation was monitored in real time with the continuous presence of indicated treatments until the end of each experiment. (C) Representative images shown are the segmentation of phase contrast images (segmentation mask illustrated in black). (D) The cell confluence (as control groups reach 95% confluency) is plotted against Mito-MGN concentration. Dashed lines represent the fitting curves used to determine the IC50 values.
(§3) To establish PLX4720-resistant melanoma cell line, UACC-62 cells (ATCC) were continuously exposed to increasing concentrations of PLX4720 (1-20 μM) for six months until the logarithmic growth resumed. PLX4720-containing media were replaced twice a week. Resistant cell line (UACC-62R) was maintained in routine culture in the presence of 20 μM PLX4720. FIGS. 21A and 21B show the effect of PLX4720 on proliferation of UACC-62-WT and UACC-62-R cells.
(§4) FIGS. 22A and 22B show the effect of Mito-magnolol on proliferation of UACC-62-WT and UACC-62-R cells. Cell proliferation was monitored in real time for cells incubated continuously under treatment conditions as shown.

STAT3 phosphorylation = assay: PathScan RTK signaling array; assay type: cell-based; details: DMS-273 cells; HNK 10 μM and 20 μM, Mito-HNK 0.2 μM, six hours
Description: H2030-BrM3 and DMS-273 cells treated with control DMSO and various doses of HNK and Mito-HNK for four hours were lysed with 200 μl lysis buffer containing proteinase inhibitor cocktails (Cell Signaling Technology, Danvers, MA), sheared 10 times with a 28-gauge needle, spun at 16,000×g for 30 min, and normalized by protein concentration as determined by the Bradford method. Normalized lysate was resolved in a PathScan RTK Signaling Array, and the signaling array was examined by a Li-COR Odyssey infrared imaging system (Li-COR Biosciences-Biotechnology, Lincoln, NE).
For the RTK signaling array, we treated DMS-273 cells with two different doses of HNK (10 μM and 20 μM) and Mito-HNK (0.2 μM) for six hours.

MiaPaCa-2 cells = assay: Intracellular ATP, combination with 2-deoxyglucose; assay type: cell-based, human; details: combined with 2-deoxyglucose (2-DG)
Source text: FIG. 4. Synergistic depletion of intracellular ATP in MiaPaCa-2 cells by combination of 2-deoxyglucose (2-DG) and honokiol (HNK) and mito-honokiol (Mito-HNK). The data were obtained on the human pancreatic cancer MiaPaCa-2 cell line. […] In one embodiment, the mito-honokiols of the present invention may be also used in combination with standard-of-care chemotherapeutics or with ionizing radiation to treat resistant cancer cells.

[2] = tested on: H2030-BrM3 and DMS-273 orthotopic lung tumors; assay: Orthotopic lung cancer model; assay type: in vivo, mice
Description: DM273 cells (1×10^6 cells/50 μg of growth factor reduced Matrigel in 50 μL of RPMI-1640 medium) were injected into the left lung. One week after injection, mice were treated with the same dose of HNK or Mito-HNK (7.5 μmol/kg) or vehicle (corn oil) by oral gavage five times per week for three weeks). […] Five-week-old male athymic nude mice were used for experiments. Mice were anesthetized with isoflurane and placed in the right lateral decubitus position. A total of 1×10^6 H2030-BrM3 cells in 50 μg of growth factor reduced Matrigel (BD Biosciences, San Jose, CA) in 50 μL of RPMI-1640 medium were injected through the left rib cages of mice into their left lungs, as previously described (Nguyen et al., 2009). […] Tumor growth and metastases phenotypes were monitored during this time by bioluminescence with an Xenogen IVIS-200. Mice were sacrificed at the endpoint; tissues were extracted, freshly frozen, and OCT-fixed or formalin-fixed with 10% zinc for later western blot and immunohistochemistry (IHC) analyses.

DMS-273 cells = assay: Cell proliferation assay (IncuCyte); assay type: cell-based; details: Homo sapiens
Description: (§5) For the cell proliferation assay, cells were seeded onto 96-well tissue culture plates at 2-3,000 cells per well. Twenty-four hours after seeding, treatment group cells were exposed to various concentrations of HNK for 48 hours, and control group cells received fresh medium. The plate was incubated at 37° C. and 5% CO2 and monitored in IncuCyte (Essen Bioscience, Ann Arbor, MI). Data analysis was conducted using IncuCyte […] software. All assays were performed in triplicate. Next, we examined the anticancer effects of Mito-HNK compared to HNK in vitro. Various doses of HNK and Mito-HNK were treated in either H2030-BrM3 or DMS-273 cells, and the antiproliferative effects were monitored with an IncuCyte Live-Cell Imaging Analyzer. […] Furthermore, we examined the anti-invasive effects of Mito-HNK in H2030-BrM3 and DMS-273 cells via a Boyden chamber invasion assay. Both cells were treated with vehicle control (DMSO), HNK (20 μM), and Mito-HNK (0.2 μM) for 36 hours, and invaded cells were determined.

H2030-BrM3 cells = assay: Cell proliferation assay (IncuCyte); assay type: cell-based; details: Homo sapiens
Description: as §5

[3] = tested on: human MiaPaCa-2 pancreatic cancer cells; assay: Antiproliferative effect on pancreatic cancer cells; assay type: cell-based
Source text: FIG. 3. Comparison of anti-proliferative effects of honokiol (HNK), mito-honokiol (Mito-HNK) and bis-mito-honokiol (Mito-bis-HNK) on human MiaPaCa-2 pancreatic cancer cells.
FIG. 15A-15F. Effects of mito-honokiol alone or in combination with 2-deoxyglucose on pancreatic cells. […] Further, the combining the mito-honokiols of the present invention with antiglycolytic agents (e.g. 2-deoxyglucose) reduced the rate of proliferation of pancreatic cancer cells than either treatment alone, as shown for a number of different concentrations in FIG. 15C-F.
The inventors also compared the antiproliferative activity of mito-honokiol analogs to honokiol using human MiaPaCa-2 pancreatic cancer cells (FIG. 3).

UACC-62-WT cells [4] = assay: Hydroethidine oxidation products by HPLC; assay type: cell-based, human; details: 24 h preincubation
Description: (§6) Mito-magnolol stimulates ROS and causes oxidation of mitochondrial antioxidative enzyme in BRAFV600E inhibitor-resistant melanoma cells. UACC-62-WT and UACC-62-R cells were preincubated with Mito-magnolol for 24 h and then treated with hydroethidine. Cell lysates were analyzed by HPLC and the superoxide-specific hydroxylation product (2-OH-E^+) and other two-electron and one-electron oxidation products (E^+ and E^+-E^+) were determined.
(§7) Hydroethidine (HE) was used to measure intracellular O2^⋅− formation. 2-Hydroxyethidium (2-OH-E^+), the diagnostic marker product of O2^⋅−/HE reaction (FIG. 23A) increased in Mito-MGN treated melanoma cells (FIG. 23B). In addition, Mito-MGN induced the iron or peroxidase-dependent oxidation of HE as evidenced by enhanced intracellular formation of E^+-E^+ and E^+ (FIG. 23B).

UACC-62-R cells [5] = assay: Hydroethidine oxidation products by HPLC; assay type: cell-based, human; details: 24 h preincubation
Description: as §6, §7

UACC-62-WT cells [6] = assay: UACC-62-WT orthotopic melanoma xenograft; assay type: in vivo, mice; details: 1 mg injected intratumorally in 50 μL
Description: (A) Representative μCT images on day 58 from UACC-62-WT xenographed (T=tumor) mice treated twice a week with vehicle (left) or 1 mg Mito-MGN (right). Data representative of 2 mice per group. (B) Quantification of tumor volume (mm^3) measured using calipers ex vivo on day 58.
The efficacy of Mito-MGN in a murine model of melanoma was tested using cells sensitive and resistant to BRAF inhibitors as tools to probe the anti-tumor effects of targeted OXPHOS inhibitors.

[7] = tested on: mitochondrial Prx3 in resistant melanoma cells; assay: Peroxiredoxin redox status (Western blot); assay type: cell-based, human; details: cytosolic Prx1 largely unaffected
Source text: (§8) (A) Western blot show the redox status of cytosolic (Prx1) and mitochondrial (Prx3) peroxiredoxins. (B) Quantitative analysis of the extent of Prx1 and Prx3 oxidation. Values are mean±SD, n=3. **, P≤0.01. (C) Scheme showing the pathways controlling the redox state and covalent dimer formation of peroxiredoxins in cells.
(§9) Peroxiredoxins (Prx) are abundant endogenous intracellular thiol peroxidases that act as compartment-specific sensors of hydrogen peroxide (H2O2) in mitochondrial (Prx3) and cytosolic (Prx1) compartments (62-64). Prxs rapidly react with H2O2 (k=10^6-10^7 M^−1 s^−1) (64, 65). Prx3 accounts for nearly 90% of mitochondrial peroxidase activity (64, 66).

[8] = tested on: mitochondrial Prx3 in WT melanoma cells; assay: Peroxiredoxin redox status (Western blot); assay type: cell-based, human; details: cytosolic Prx1 largely unaffected
Source text: as §8, §9

UACC-62 cells = assay: TMRE flow cytometry, mitochondrial depolarization; assay type: cell-based, human; details: pilot experiments
Source text: (A) Representative TMRE quantification using flow cytometry. (B) Mean fluorescence intensity (MFI) of TMRE in Mito-MGN-treated and vehicle (V)-treated UACC-62-WT cells. Values are mean±SEM, n=3
Not to be bound by any theory, but it is believed that Mito-MGN-induced ROS halts melanoma proliferation through induction of mitophagy. ROS at high μM concentrations have detrimental effects on lipids, proteins, and DNA, whereas at nM concentrations, ROS exerts potent signaling effects (11, 41, 65). We postulate that OXPHOS inhibition by Mito-MGN increases ROS levels, which in turn stimulates mitophagy. To test this hypothesis, we will use an iterative approach to first measure mitochondrial membrane damage, followed by the parallel examination of molecular markers and phagolysome activation needed for mitophagy. Tetramethylrhodamine ethyl ester (TMRE) is retained in metabolically active mitochondria and released into the cytosol and extracellular space of cells with depolarized/damaged mitochondria (67), as illustrated in our recent paper using related mitochondria-targeted agents (12).

UACC-62-R cells [9] = assay: Melanoma cell proliferation monitored in real time; assay type: cell-based, human; details: 0.1-0.3 μM, six days
Description: as §1, §2, §3, §4

B16.F10 cells = assay: B16.F10 orthotopic melanoma model; assay type: in vivo, mice
Description: (A) Kaplan-Maier survival curves of B16-F10 engrafted mice treated on days 7, 9, 11, 14, 16, & 18 with Mito-MGN [1 mg] or with α-PD-L1 [250 μg]. (B) Tumor size (mm2) over time. (C) Tumor volume measured on day 19. Values are mean±SD, n=4 mice/group. ***, P≤0.001.
T cells were detected using CD3 immunostaining (brown). Arrowheads highlight CD3+ T cells in melanoma (blue cells). Data representative of 4 separate mice.

[10] = Serum toxicity markers (pilot study); details: three weekly treatment at 5 mg/kg
[11] = tested on: mitochondrial complex I in UACC-62-WT cells; assay: Seahorse XF96 bioenergetics (OCR, complex I-mediated respiration, glycolysis); assay type: cell-based, human
Description: (§10) Melanoma cells harboring BRAF oncogenic mutations use aerobic glycolysis (the Warburg effect) to meet their energy demands. […] One reason for the acquired resistance to PLX4720 is the adaptive change from glycolysis to OXPHOS.
(§11) We used a Seahorse XF96 Analyzer to measure OCR, a readout of mitochondrial respiration, and […], a surrogate marker for glycolysis, in real time. OCR is measured after adding substrates and inhibitors of complexes I-IV. In preliminary studies, Mito-MGN inhibited complex I activity in both WT and resistant cells (FIG. 21F).

[12] = molecular target: mitochondrial complex I in UACC-62-R cells; assay: as above; assay type: cell-based, human
Description: as §10, §11

[13] = 1 mg/tumor Mito-MGN or 250 μg anti-PD-L1 antibody

CCCS(=O)(=O)Nc1ccc(F)c(C(=O)c2c[nH]c3ncc(Cl)cc23)c1F [PLX4720, reference compound]
cells after six days of treatment (phase contrast images) (UACC-62-WT cells [1]; 10 μM, WT versus resistant cells): considerably fewer WT cells compared to resistant cells

C=CCc1ccc(O)c(-c2ccc(O)c(CC=C)c2)c1 [HNK, honokiol]
STAT3 phosphorylation levels (STAT3 phosphorylation): dramatically decreased | cellular ATP levels (MiaPaCa-2 cells): synergize with 2-deoxyglucose (2-DG) in decreasing cellular ATP levels | tumor growth ([2]; 7.5 μmol/kg oral gavage five times per week for three weeks): did not significantly reduce tumor growth | observable side effects ([2]; H2030-BrM3 and DMS-273 orthotopic models): did not show any observable side effects | IC50 (DMS-273 cells): 30 µM | IC50 (H2030-BrM3 cells): 27 µM

C=CCc1ccc(OCCCCCCCCCC[P+](c2ccccc2)(c2ccccc2)c2ccccc2)c(-c2ccc(OCCCCCCCCCC[P+](c3ccccc3)(c3ccccc3)c3ccccc3)c(CC=C)c2)c1 [Bis-Mito-HNK]
antiproliferative potency compared with honokiol ([3]; MiaPaCa-2): more potent than honokiol

C=CCc1ccc(O)c(-c2cc(CC=C)ccc2OC[P+](c2ccccc2)(c2ccccc2)c2ccccc2)c1.[Br-] [Mito-MGN]
HE oxidation products 2-OH-E+, E+ and E+-E+ (UACC-62-WT cells [4]): significantly higher amount | HE oxidation products 2-OH-E+, E+ and E+-E+ (UACC-62-R cells [5]): significantly higher amount | tumor size (μCT in vivo and ex vivo excised tumors) (UACC-62-WT cells [6]): potently reduced tumor size | antiproliferative effects ([3]; 1 μM, FIG. 15B): exhibit antiproliferative effects | oxidation of mitochondrial Prx3 [7]: stimulated the oxidation of mitochondrial Prx3 | oxidation of mitochondrial Prx3 [8]: stimulated the oxidation of mitochondrial Prx3 | mitochondrial membrane potential (TMRE) (UACC-62 cells): dose dependently decreases mitochondrial membrane potential | sensitivity of proliferation (UACC-62-WT cells [1]; 0.1-0.3 μM, six days): exquisitely sensitive | sensitivity of proliferation (UACC-62-R cells [9]): exquisitely sensitive | melanoma growth in vivo (B16.F10 cells; [13]): decreased melanoma growth | survival (B16.F10 cells; [13]): increased survival | T cell levels in excised tumors (CD3 immunostaining) (B16.F10 cells; compared to vehicle control tumors): increased T cell levels | efficiency in abrogating tumor progression and size (B16.F10 cells; compared with anti-PD-L1): equal to anti-PD-L1 | BUN ([10]; serum, day 19, Mean ± SE, n = 4-5, ref (12-28)): 24.5 ± 1.9 mg/dL | ALT ([10]; serum, day 19, Mean ± SE, n = 4-5, ref (22-77)): 58.7 ± 12.7 IU/L | AP ([10]; serum, day 19, Mean ± SE, n = 4-5, ref (45-222)): 36.7 ± 10.8 IU/L | liver or kidney toxicity [10]: little liver or kidney toxicity | OXPHOS (OCR) ([11]; WT cells): significantly inhibiting OXPHOS | glycolysis (SCAR/PPR) ([11]; WT cells): minimally affected glycolysis | IC50 ([11]; read-out: IC50 to inhibit complex I-mediated respiration, 1 h treatment, UACC-62-WT): 0.35 µM | IC50 ([12]; read-out: IC50 to inhibit complex I-mediated respiration, 1 h treatment, UACC-62-R): 0.66 µM | OXPHOS (OCR) ([12]; resistant cells): significantly inhibiting OXPHOS | glycolysis (SCAR/PPR) ([12]; resistant cells): minimally affected glycolysis
